For 24 molecules, IC50 results are on record in patent publication US10577363B2, “Substituted piperidine compounds” (EPIZYME, INC., priority 2014, dated 2020).

Molecules are shown by their SMILES.

In the test the target is SMYD3 (Homo sapiens (Human), UniProt Q9H7B4). Put plainly: SMYD3 biochemical assay (SPA, 3H-SAM methylation of MEKK2 protein substrate). Particulars: read-out: SMYD3 Biochem IC50 (μM)*. An excerpt: S-adenosylmethionine (SAM), S-adenosylhomocysteine (SAH), Tris, Tween20, dimethylsulfoxide (DMSO), bovine skin gelatin (BSG), and Tris(2-carboxyethyl)phosphine hydrochloride solution (TCEP) were purchased from Sigma-Aldrich at the highest level of purity possible. ^3H-SAM was purchase from American Radiolabeled Chemicals with a specific activity of 80 Ci/mmol. 384-well opaque white OptiPlates and SPA beads (Perkin Elmer, catalog # RPNQ0013) were purchased from PerkinElmer.
N-terminally GST-tagged MEKK2 (MAP3K2) protein corresponding to reference sequence AAF63496.3 was purchased from Life Technologies (catalog # PV4010). This protein was expressed in High Five insect cells and purified to >85% purity. Protein identity was confirmed by MS/MS analysis after proteolytic digestion. The protein sequence used was:
Full-length human SMYD3 isoform 1 (BAB86333) was inserted into a modified pET21b plasmid containing a His6 tag and TEV and SUMO cleavage sites.
E. coli (BL21 codonplus RIL strain, Stratagene) were transformed with plasmid pEPZ553 by mixing competent cells and plasmid DNA and incubating on ice for 30 minutes followed by heat shock at 42° C. for 1 minute and cooling on ice for 2 minutes. Transformed cells were grown and selected on LB agar with 100 μg/mL ampicillin and 17 μg/mL chloramphenicol at 37° C. overnight. A single clone was used to inoculate 200 mL of LB medium with 100 μg/mL ampicillin and 17 μg/mL chloramphenicol and incubated at 37° C. on an orbital shaker at 180 rpm. Once in log growth, the culture was diluted 1:100 into 2 L of LB medium and grown until OD600 was about 0.3 after which the culture was incubated at 15° C. and 160 rpm. Once OD600 reached about 0.4, IPTG was added to a final concentration of 0.1 mM and the cells were grown overnight at 15° C. and 160 rpm. Cells were harvested by centrifugation at 8000 rpm, for 4 minutes at 4° C. and stored at −80° C. for purification.
The column was washed with Buffer B (Buffer A plus 20 mM imidazole) and His-tagged SMYD3 was eluted with Buffer C (Buffer A plus 300 mM imidazole). The His tag, TEV and SUMO cleavage sites were removed generating native SMYD3 by addition of ULP1 protein at a ratio of 1:200 (ULP1:SMYD3). Imidazole was removed by dialysis overnight in Buffer A. The dialyzed solution was applied to a second Nickel column and the native SMYD3 protein was collected from the column flow-through. The flow-through was dialyzed in Buffer D (25 mM Tris, 5% glycerol, 5 mM β-mercaptoethanol, 50 mM NaCl, pH7.8) and ULP1 was removed using a Q sepharose fast flow column.
General Procedure for SMYD3 Enzyme Assays on MEKK2 Protein Substrate
The assays were all performed in a buffer consisting of 25 mM Tris-Cl pH 8.0, 1 mM TCEP, 0.005% BSG, and 0.005% Tween 20, prepared on the day of use. […] DMSO (1 ul) was added to Columns 11, 12, 23, 24, rows A-H for the maximum signal control and 1 ul of SAH, a known product and inhibitor of SMYD3, was added to columns 11, 12, 23, 24, rows I-P for the minimum signal control. A cocktail (40 ul) containing the SMYD3 enzyme was added by Multidrop Combi (Thermo-Fisher). The compounds were allowed to incubate with SMYD3 for 30 min at room temperature, then a cocktail (10 ul) containing SAM and MEKK2 was added to initiate the reaction (final volume=51 ul). […] The assays were stopped by the addition of non-radiolabeled SAM (10 ul) to a final concentration of 100 uM, which dilutes the ^3H-SAM to a level where its incorporation into MEKK2 is no longer detectable. Radiolabeled MEKK2 was detected using a scintillation proximity assay (SPA). 10 uL of a 10 mg/mL solution of SPA beads in 0.5 M citric acid was added and the plates centrifuged at 600 rpm for 1 min to precipitate the radiolabeled MEKK2 onto the SPA beads. The plates were then read in a PerkinElmer TopCount plate reader to measure the quantity of ^3H-labeled MEKK2 as disintegrations per minute (dpm) or alternatively, referred to as counts per minute (cpm).

As to `C[C@H](N)CC(=O)NC[C@H](Cc1ccc(O)c(I)c1)C(=O)N1CCC(NC(=O)c2cc(C3CC3)on2)CC1` [compound 33, N-(1-((S)-3-((S)-3-aminobutanamido)-2-(4-hydroxy-3-iodobenzyl)propanoyl)piperidin-4-yl)-5-cyclopropylisoxazole-3-carboxamide], the IC50 (commonly the midpoint of a concentration-inhibition curve) is 0.473 µM.

With `NCCC(=O)NC[C@@H](Cc1ccc(O)c(I)c1)C(=O)N1CCC(NC(=O)c2cc(C3CC3)on2)CC1` [compound 34, (R)-N-(1-(3-(3-aminopropanamido)-2-(4-hydroxy-3-iodobenzyl)propanoyl)piperidin-4-yl)-5-cyclopropylisoxazole-3-carboxamide], the IC50 was determined as 1.64 µM. In the case of `NCCC(=O)NC[C@H](Cc1ccc(O)c(I)c1)C(=O)N1CCC(NC(=O)c2cc(C3CC3)on2)CC1` [compound 35, (S)-N-(1-(3-(3-aminopropanamido)-2-(4-hydroxy-3-iodobenzyl)propanoyl)piperidin-4-yl)-5-cyclopropylisoxazole-3-carboxamide], the IC50 was found to be 0.117 µM. For `NCC(=O)NC[C@@H](Cc1ccc(O)c(I)c1)C(=O)N1CCC(NC(=O)c2cc(C3CC3)on2)CC1` [compound 36, (R)-N-(1-(3-(2-aminoacetamido)-2-(4-hydroxy-3-iodobenzyl)propanoyl)piperidin-4-yl)-5-cyclopropylisoxazole-3-carboxamide] the value was 9.41 µM. Take `NCC(=O)NC[C@H](Cc1ccc(O)c(I)c1)C(=O)N1CCC(NC(=O)c2cc(C3CC3)on2)CC1` [compound 37, (S)-N-(1-(3-(2-aminoacetamido)-2-(4-hydroxy-3-iodobenzyl)propanoyl)piperidin-4-yl)-5-cyclopropylisoxazole-3-carboxamide]: the IC50 was determined as 0.623 µM. Then `Cc1ccc(C[C@H](CN)C(=O)N2CCC(NC(=O)c3cc(C4CC4)on3)CC2)cc1O` [compound 38, (R)-N-(1-(3-amino-2-(3-hydroxy-4-methylbenzyl)propanoyl)piperidin-4-yl)-5-cyclopropylisoxazole-3-carboxamide], with 0.518 µM; and `Cc1ccc(C[C@@H](CN)C(=O)N2CCC(NC(=O)c3cc(C4CC4)on3)CC2)cc1O` [compound 39, (S)-N-(1-(3-amino-2-(3-hydroxy-4-methylbenzyl)propanoyl)piperidin-4-yl)-5-cyclopropylisoxazole-3-carboxamide], with 14 µM.

As to `NCCCN1CCC(NC(=O)c2cc(C3CC3)on2)CC1` [compound 40, N-(1-(3-aminopropyl)piperidin-4-yl)-5-cyclopropylisoxazole-3-carboxamide], the IC50 turned out to be 3.16 µM.

On to `C[C@@H](N)C(=O)NC[C@@H](Cc1ccc(O)c(I)c1)C(=O)N1CCC(NC(=O)c2cc(C3CC3)on2)CC1` [compound 42, N-(1-((R)-3-((R)-2-aminopropanamido)-2-(4-hydroxy-3-iodobenzyl)propanoyl)piperidin-4-yl)-5-cyclopropylisoxazole-3-carboxamide], for which the IC50 worked out at 8.39 µM. For `C[C@@H](N)C(=O)NC[C@H](Cc1ccc(O)c(I)c1)C(=O)N1CCC(NC(=O)c2cc(C3CC3)on2)CC1` [compound 43, N-(1-((S)-3-((R)-2-aminopropanamido)-2-(4-hydroxy-3-iodobenzyl)propanoyl)piperidin-4-yl)-5-cyclopropylisoxazole-3-carboxamide] the value was 1.23 µM. Then `C[C@@H](N)CC(=O)NC[C@@H](Cc1ccc(O)c(I)c1)C(=O)N1CCC(NC(=O)c2cc(C3CC3)on2)CC1` [compound 44, N-(1-((R)-3-((R)-3-aminobutanamido)-2-(4-hydroxy-3-iodobenzyl)propanoyl)piperidin-4-yl)-5-cyclopropylisoxazole-3-carboxamide], with 13.8 µM.

On to `C[C@@H](N)CC(=O)NC[C@H](Cc1ccc(O)c(I)c1)C(=O)N1CCC(NC(=O)c2cc(C3CC3)on2)CC1` [compound 45, N-(1-((S)-3-((R)-3-aminobutanamido)-2-(4-hydroxy-3-iodobenzyl)propanoyl)piperidin-4-yl)-5-cyclopropylisoxazole-3-carboxamide], for which the IC50 was found to be 0.479 µM.

Turning to `C[C@H]1CN(C(=O)[C@H](N)Cc2ccc(O)cc2)CCC1NC(=O)c1cc(C2CC2)on1` (stereo partly drawn) [compound 47, N-((3S)-1-(D-tyrosyl)-3-methylpiperidin-4-yl)-5-cyclopropylisoxazole-3-carboxamide], the IC50 worked out at 14.9 µM.

As for `C[C@@H]1CN(C(=O)[C@H](N)Cc2ccc(O)cc2)CCC1NC(=O)c1cc(C2CC2)on1` (stereo partly drawn) [compound 48, N-((3R)-1-(D-tyrosyl)-3-methylpiperidin-4-yl)-5-cyclopropylisoxazole-3-carboxamide], the IC50 was 14.9 µM. For `C[C@H]1CN(C(=O)CN)CCC1NC(=O)c1cc(C2CC2)on1` (stereo partly drawn) [compound 49, 5-cyclopropyl-N-((3S)-1-glycyl-3-methylpiperidin-4-yl)isoxazole-3-carboxamide] the value was 37.2 µM. Regarding `C[C@@H]1CN(C(=O)CN)CC[C@H]1NC(=O)c1cc(C2CC2)on1` [compound 50, 5-cyclopropyl-N-((3R,4R)-1-glycyl-3-methylpiperidin-4-yl)isoxazole-3-carboxamide], the IC50 was determined as 9.72 µM.

On to `C[C@@H]1CN(C(=O)CN)CC[C@@H]1NC(=O)c1cc(C2CC2)on1` [compound 51, 5-cyclopropyl-N-((3R,4S)-1-glycyl-3-methylpiperidin-4-yl)isoxazole-3-carboxamide], for which the IC50 turned out to be 12.7 µM.

For `C[C@H]1CC(NC(=O)c2cc(C3CC3)on2)CCN1C(=O)CN` (stereo partly drawn) [compound 52, 5-cyclopropyl-N-((2S)-1-glycyl-2-methylpiperidin-4-yl)isoxazole-3-carboxamide], the IC50 amounted to 32.5 µM. Then `C[C@@H]1C[C@@H](NC(=O)c2cc(C3CC3)on2)CCN1C(=O)CC1CCNCC1` [compound 53, 5-cyclopropyl-N-((2R,4S)-2-methyl-1-(2-(piperidin-4-yl)acetyl)piperidin-4-yl)isoxazole-3-carboxamide], with 0.862 µM. Turning to `C[C@H]1C[C@@H](NC(=O)c2cc(C3CC3)on2)CCN1C(=O)CC1CCNCC1` [compound 54, 5-cyclopropyl-N-((2S,4S)-2-methyl-1-(2-(piperidin-4-yl)acetyl)piperidin-4-yl)isoxazole-3-carboxamide], the IC50 stood at 2.08 µM.

On to `C[C@@H]1C[C@H](NC(=O)c2cc(C3CC3)on2)CCN1C(=O)CC1CCNCC1` [compound 55, 5-cyclopropyl-N-((2R,4R)-2-methyl-1-(2-(piperidin-4-yl)acetyl)piperidin-4-yl)isoxazole-3-carboxamide], for which the IC50 is 0.681 µM. Then `C[C@@H]1C[C@@H](NC(=O)c2cc(C3CC3)on2)CCN1C(=O)[C@H]1CC[C@H](N)CC1` [compound 58, N-((2R,4S)-1-((1r,4R)-4-aminocyclohexane-1-carbonyl)-2-methylpiperidin-4-yl)-5-cyclopropylisoxazole-3-carboxamide], with 1.4 µM; and `C[C@H]1C[C@@H](NC(=O)c2cc(C3CC3)on2)CCN1C(=O)[C@H]1CC[C@H](N)CC1` [compound 59, N-((2S,4S)-1-((1r,4S)-4-aminocyclohexane-1-carbonyl)-2-methylpiperidin-4-yl)-5-cyclopropylisoxazole-3-carboxamide], with 7.97 µM; and `C[C@H]1C[C@H](NC(=O)c2cc(C3CC3)on2)CCN1C(=O)[C@H]1CC[C@H](N)CC1` [compound 60, N-((2S,4R)-1-((1r,4S)-4-aminocyclohexane-1-carbonyl)-2-methylpiperidin-4-yl)-5-cyclopropylisoxazole-3-carboxamide], with 1.41 µM.
